Assay results as given in PubChem BioAssay AID1963844 (Molecular Pharmacology Branch, DTP, NCI, 2024).

Test system: 422866-222-R5-J1-PDC complex spheroid viability
Experiment: Anticancer human tumor 422866-222-R5-J1-PDC patient-derived pancreatic adenocarcinoma cell line growth inhibition [POLQ]
Conditions: for IC50: curve of first compound; for viability, T/C: stronger effect = lower value
Summary of the method: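 Patient-derived tumour cells were co-cultured with HUVEC and mesenchymal stem cells as multicellular spheroids at 37 °C. They were treated with POLQ inhibitors (novobiocin, ART-558, RP6685) alone or combined with other agents. Top concentrations were at or near clinical Cmax (otherwise 10 microM; SN-38 at 1 microM), decreasing in half-log steps.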

[1] = second compound 0.0316 µM, first compound 0.0316 µM
[2] = second compound 0.0316 µM, first compound 0.1 µM
[3] = second compound 0.0316 µM, first compound 0.316 µM
[4] = second compound 0.0316 µM, first compound 1 µM
[5] = second compound 0.0316 µM, first compound 3.16 µM
[6] = second compound 0.0316 µM, first compound 10 µM
[7] = second compound 0.1 µM, first compound 0.0316 µM
[8] = second compound 0.1 µM, first compound 0.1 µM
[9] = second compound 0.1 µM, first compound 0.316 µM
[10] = second compound 0.1 µM, first compound 1 µM
[11] = second compound 0.1 µM, first compound 3.16 µM
[12] = second compound 0.1 µM, first compound 10 µM
[13] = second compound 0.316 µM, first compound 0.0316 µM
[14] = second compound 0.316 µM, first compound 0.1 µM
[15] = second compound 0.316 µM, first compound 0.316 µM
[16] = second compound 0.316 µM, first compound 1 µM
[17] = second compound 0.316 µM, first compound 3.16 µM
[18] = second compound 0.316 µM, first compound 10 µM
[19] = second compound 1 µM, first compound 0.0316 µM
[20] = second compound 1 µM, first compound 0.1 µM
[21] = second compound 1 µM, first compound 0.316 µM
[22] = second compound 1 µM, first compound 1 µM
[23] = second compound 1 µM, first compound 3.16 µM
[24] = second compound 1 µM, first compound 10 µM
[25] = second compound 3.16 µM, first compound 0.0316 µM
[26] = second compound 3.16 µM, first compound 0.1 µM
[27] = second compound 3.16 µM, first compound 0.316 µM
[28] = second compound 3.16 µM, first compound 1 µM
[29] = second compound 3.16 µM, first compound 3.16 µM
[30] = second compound 3.16 µM, first compound 10 µM
[31] = second compound 10 µM, first compound 0.0316 µM
[32] = second compound 10 µM, first compound 0.1 µM
[33] = second compound 10 µM, first compound 0.316 µM
[34] = second compound 10 µM, first compound 1 µM
[35] = second compound 10 µM, first compound 3.16 µM
[36] = second compound 10 µM, first compound 10 µM
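Also: spheroids exposed to compounds for one week before readout.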
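For viability, T/C in this document: percent of DMSO vehicle wells luminescence so 100% = untreated viability.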

CC(=O)O[C@H]1C(=O)[C@@]2(C)[C@H]([C@H](OC(=O)c3ccccc3)[C@]3(O)C[C@H](OC(=O)[C@H](O)[C@@H](NC(=O)c4ccccc4)c4ccccc4)C(C)=C1C3(C)C)[C@]1(OC(C)=O)CO[C@@H]1C[C@@H]2O + Cc1cccc(N(C)C(=O)C2C(O)CCN2c2nc(C)cc(C(F)(F)F)c2C#N)c1
IC50 (second compound 0.0316 µM): < 9.49 nM | IC50 (second compound 0.1 µM): > 3000 nM | IC50 (second compound 0.316 µM): > 3000 nM | IC50 (second compound 1 µM): < 9.49 nM | IC50 (second compound 3.16 µM): > 3000 nM | IC50 (second compound 10 µM): < 9.49 nM | viability, T/C (second compound 0.0316 µM, first compound 0.00949 µM): 48.8% | viability, T/C (second compound 0.0316 µM, first compound 0.03 µM): 47.8% | viability, T/C (second compound 0.0316 µM, first compound 0.0949 µM): 44.6% | viability, T/C (second compound 0.0316 µM, first compound 0.3 µM): 53% | viability, T/C (second compound 0.0316 µM, first compound 0.949 µM): 52.6% | viability, T/C (second compound 0.0316 µM, first compound 3 µM): 56% | viability, T/C (second compound 0.1 µM, first compound 0.00949 µM): 54% | viability, T/C (second compound 0.1 µM, first compound 0.03 µM): 47.9% | viability, T/C (second compound 0.1 µM, first compound 0.0949 µM): 58.1% | viability, T/C (second compound 0.1 µM, first compound 0.3 µM): 50.2% | viability, T/C (second compound 0.1 µM, first compound 0.949 µM): 49.4% | viability, T/C (second compound 0.1 µM, first compound 3 µM): 52.6% | viability, T/C (second compound 0.316 µM, first compound 0.00949 µM): 54% | viability, T/C (second compound 0.316 µM, first compound 0.03 µM): 51.9% | viability, T/C (second compound 0.316 µM, first compound 0.0949 µM): 55.2% | viability, T/C (second compound 0.316 µM, first compound 0.3 µM): 46.3% | viability, T/C (second compound 0.316 µM, first compound 0.949 µM): 52.3% | viability, T/C (second compound 0.316 µM, first compound 3 µM): 56.6% | viability, T/C (second compound 1 µM, first compound 0.00949 µM): 49.8% | viability, T/C (second compound 1 µM, first compound 0.03 µM): 41.3% | viability, T/C (second compound 1 µM, first compound 0.0949 µM): 51.9% | viability, T/C (second compound 1 µM, first compound 0.3 µM): 55.6% | viability, T/C (second compound 1 µM, first compound 0.949 µM): 50.9% | viability, T/C (second compound 1 µM, first compound 3 µM): 59.8% | viability, T/C (second compound 3.16 µM, first compound 0.00949 µM): 57.5% | viability, T/C (second compound 3.16 µM, first compound 0.03 µM): 46.9% | viability, T/C (second compound 3.16 µM, first compound 0.0949 µM): 59.7% | viability, T/C (second compound 3.16 µM, first compound 0.3 µM): 49.8% | viability, T/C (second compound 3.16 µM, first compound 0.949 µM): 57.8% | viability, T/C (second compound 3.16 µM, first compound 3 µM): 67.8% | viability, T/C (second compound 10 µM, first compound 0.00949 µM): 47.7% | viability, T/C (second compound 10 µM, first compound 0.03 µM): 48% | viability, T/C (second compound 10 µM, first compound 0.0949 µM): 42.9% | viability, T/C (second compound 10 µM, first compound 0.3 µM): 51.6% | viability, T/C (second compound 10 µM, first compound 0.949 µM): 64.9% | viability, T/C (second compound 10 µM, first compound 3 µM): 68.3%

COc1cc(C2c3cc4c(cc3C(OC3OC5COC(C)OC5C(O)C3O)C3COC(=O)C23)OCO4)cc(OC)c1O (stereo not drawn) + Cc1cccc(N(C)C(=O)C2C(O)CCN2c2nc(C)cc(C(F)(F)F)c2C#N)c1
IC50 (second compound 0.0316 µM): 1230 nM | IC50 (second compound 0.1 µM): 1650 nM | IC50 (second compound 0.316 µM): 1360 nM | IC50 (second compound 1 µM): 735 nM | IC50 (second compound 3.16 µM): 714 nM | IC50 (second compound 10 µM): 876 nM | viability, T/C [1]: 96.8% | viability, T/C [2]: 84.3% | viability, T/C [3]: 69% | viability, T/C [4]: 53.5% | viability, T/C [5]: 37.9% | viability, T/C [6]: 33.2% | viability, T/C [7]: 101% | viability, T/C [8]: 92.9% | viability, T/C [9]: 63.3% | viability, T/C [10]: 58.6% | viability, T/C [11]: 44.2% | viability, T/C [12]: 31.8% | viability, T/C [13]: 110% | viability, T/C [14]: 92.7% | viability, T/C [15]: 68.8% | viability, T/C [16]: 50.6% | viability, T/C [17]: 47.7% | viability, T/C [18]: 35.8% | viability, T/C [19]: 105% | viability, T/C [20]: 94.7% | viability, T/C [21]: 61.8% | viability, T/C [22]: 46.5% | viability, T/C [23]: 38.5% | viability, T/C [24]: 29.7% | viability, T/C [25]: 103% | viability, T/C [26]: 88.8% | viability, T/C [27]: 56.6% | viability, T/C [28]: 49.6% | viability, T/C [29]: 40.1% | viability, T/C [30]: 33.7% | viability, T/C [31]: 91.5% | viability, T/C [32]: 77.1% | viability, T/C [33]: 56% | viability, T/C [34]: 49.9% | viability, T/C [35]: 45.1% | viability, T/C [36]: 37%

COc1cccc2c1C(=O)c1c(O)c3c(c(O)c1C2=O)CC(O)(C(=O)CO)CC3OC1CC(N)C(O)C(C)O1 (stereo not drawn) + Cc1cccc(N(C)C(=O)C2C(O)CCN2c2nc(C)cc(C(F)(F)F)c2C#N)c1
IC50 (second compound 0.0316 µM): 160 nM | IC50 (second compound 0.1 µM): 114 nM | IC50 (second compound 0.316 µM): 152 nM | IC50 (second compound 1 µM): 202 nM | IC50 (second compound 3.16 µM): 204 nM | IC50 (second compound 10 µM): 133 nM | viability, T/C [1]: 67.2% | viability, T/C [2]: 56.3% | viability, T/C [3]: 41.4% | viability, T/C [4]: 24.5% | viability, T/C [5]: 32.9% | viability, T/C [6]: 30.1% | viability, T/C [7]: 66.6% | viability, T/C [8]: 51.3% | viability, T/C [9]: 37% | viability, T/C [10]: 22.6% | viability, T/C [11]: 27.4% | viability, T/C [12]: 34.4% | viability, T/C [13]: 57.6% | viability, T/C [14]: 56.7% | viability, T/C [15]: 37.3% | viability, T/C [16]: 25.6% | viability, T/C [17]: 26.2% | viability, T/C [18]: 36.4% | viability, T/C [19]: 65.5% | viability, T/C [20]: 60.8% | viability, T/C [21]: 42.4% | viability, T/C [22]: 24.5% | viability, T/C [23]: 28.6% | viability, T/C [24]: 36.6% | viability, T/C [25]: 62.3% | viability, T/C [26]: 58.5% | viability, T/C [27]: 44.3% | viability, T/C [28]: 30.1% | viability, T/C [29]: 30.2% | viability, T/C [30]: 36.2% | viability, T/C [31]: 68.2% | viability, T/C [32]: 53% | viability, T/C [33]: 40.5% | viability, T/C [34]: 25.9% | viability, T/C [35]: 24.1% | viability, T/C [36]: 40.2%

O=c1[nH]cc(F)c(=O)[nH]1 + Cc1cccc(N(C)C(=O)C2C(O)CCN2c2nc(C)cc(C(F)(F)F)c2C#N)c1
IC50 (second compound 0.0316 µM): > 10000 nM | IC50 (second compound 0.1 µM): > 10000 nM | IC50 (second compound 0.316 µM): > 10000 nM | IC50 (second compound 1 µM): > 10000 nM | IC50 (second compound 3.16 µM): > 10000 nM | IC50 (second compound 10 µM): > 10000 nM | viability, T/C [1]: 117% | viability, T/C [2]: 98.5% | viability, T/C [3]: 102% | viability, T/C [4]: 88.2% | viability, T/C [5]: 82.1% | viability, T/C [6]: 74.9% | viability, T/C [7]: 111% | viability, T/C [8]: 92.2% | viability, T/C [9]: 92.3% | viability, T/C [10]: 90.8% | viability, T/C [11]: 66.9% | viability, T/C [12]: 74.3% | viability, T/C [13]: 118% | viability, T/C [14]: 109% | viability, T/C [15]: 99.9% | viability, T/C [16]: 84.3% | viability, T/C [17]: 81.1% | viability, T/C [18]: 78.2% | viability, T/C [19]: 111% | viability, T/C [20]: 96.6% | viability, T/C [21]: 97.9% | viability, T/C [22]: 101% | viability, T/C [23]: 84.8% | viability, T/C [24]: 83.2% | viability, T/C [25]: 107% | viability, T/C [26]: 98.6% | viability, T/C [27]: 86.3% | viability, T/C [28]: 83% | viability, T/C [29]: 83.8% | viability, T/C [30]: 87.6% | viability, T/C [31]: 90.6% | viability, T/C [32]: 88.8% | viability, T/C [33]: 99.7% | viability, T/C [34]: 80.6% | viability, T/C [35]: 86.7% | viability, T/C [36]: 67.8%
